Measurements reported in ChEMBL document CHEMBL1240323, “3D QSAR studies on a series of potent and high selective inhibitors for three kinases of RTK family” (J Mol Graph Model, 2007).
pIC50: −log10 of the molar value.

Target: Vascular endothelial growth factor receptor 2 (Homo sapiens, UniProt P35968)
Assay: Inhibition of KDR

Vascular endothelial growth factor receptor 2, sequence (P35968 whole entry): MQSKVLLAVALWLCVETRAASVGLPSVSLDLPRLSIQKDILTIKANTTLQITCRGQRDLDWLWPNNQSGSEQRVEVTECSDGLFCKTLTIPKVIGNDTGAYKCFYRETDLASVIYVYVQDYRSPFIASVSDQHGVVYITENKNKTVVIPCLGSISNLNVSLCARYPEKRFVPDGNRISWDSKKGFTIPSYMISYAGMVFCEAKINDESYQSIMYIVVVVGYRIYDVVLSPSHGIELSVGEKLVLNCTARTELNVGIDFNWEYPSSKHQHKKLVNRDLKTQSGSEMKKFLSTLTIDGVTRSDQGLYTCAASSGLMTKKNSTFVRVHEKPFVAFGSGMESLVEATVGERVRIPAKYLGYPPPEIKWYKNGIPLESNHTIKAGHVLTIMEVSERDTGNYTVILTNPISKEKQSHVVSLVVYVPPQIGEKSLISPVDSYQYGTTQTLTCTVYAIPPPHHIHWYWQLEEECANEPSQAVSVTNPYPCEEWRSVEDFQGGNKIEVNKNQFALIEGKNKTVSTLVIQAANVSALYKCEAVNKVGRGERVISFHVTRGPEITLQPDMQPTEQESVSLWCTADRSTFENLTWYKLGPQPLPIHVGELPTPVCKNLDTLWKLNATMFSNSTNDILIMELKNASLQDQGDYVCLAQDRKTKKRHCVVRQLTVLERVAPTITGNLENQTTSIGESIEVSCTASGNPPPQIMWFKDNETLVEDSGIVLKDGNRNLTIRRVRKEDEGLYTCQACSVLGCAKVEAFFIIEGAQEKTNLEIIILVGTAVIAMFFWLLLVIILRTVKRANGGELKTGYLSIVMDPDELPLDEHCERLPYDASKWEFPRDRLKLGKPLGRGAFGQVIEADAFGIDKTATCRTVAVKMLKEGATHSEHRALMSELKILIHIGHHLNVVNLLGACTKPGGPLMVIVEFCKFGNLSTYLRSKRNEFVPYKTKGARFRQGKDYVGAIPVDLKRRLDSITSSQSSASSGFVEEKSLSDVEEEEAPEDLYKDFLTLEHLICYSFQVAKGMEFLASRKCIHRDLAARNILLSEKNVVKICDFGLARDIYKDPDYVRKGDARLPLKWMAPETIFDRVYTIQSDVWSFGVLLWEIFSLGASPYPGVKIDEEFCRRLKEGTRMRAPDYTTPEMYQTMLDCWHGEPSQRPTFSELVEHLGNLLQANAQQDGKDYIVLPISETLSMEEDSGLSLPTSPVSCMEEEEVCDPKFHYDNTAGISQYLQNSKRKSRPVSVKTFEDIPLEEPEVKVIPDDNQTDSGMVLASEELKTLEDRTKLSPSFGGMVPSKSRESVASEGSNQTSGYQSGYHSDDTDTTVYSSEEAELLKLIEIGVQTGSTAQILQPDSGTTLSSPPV

pIC50: 7.34
SMILES: Cc1sc2ncnc(N)c2c1-c1ccc(NC(=O)Nc2cc(C(F)(F)F)ccc2F)cc1
